From the OligoGym collection
HELM strings list units from the 5' end as sugar, base in round brackets, then linkage (d deoxyribose, r ribose, m 2'-O-methyl, p phosphodiester). Strings are as the collection lists them; they lack the last nucleoside at the 3' end of the tested compound. [moe] = 2'-O-(2-methoxyethyl) (MOE); [sp] = phosphorothioate linkage; [m5C] = 5-methylcytosine

Molecular target: PRNP
Test: mouse, dose not given
Details: ASO

In order of falling 3 h FOB score:
1. RNA1{[moe](G)[sp].[moe](T)p.[moe](T)p.[moe]([m5C])p.[moe](T)[sp].d(T)[sp].d(T)[sp].d(T)[sp].d([m5C])[sp].d(T)[sp].d(T)[sp].d(T)[sp].d(G)[sp].d([m5C])[sp].d(A)[sp].[moe]([m5C])p.[moe](A)p.[moe]([m5C])[sp].[moe](T)}$$$$ (last 3' nucleoside missing)  6.25 score 0-7
2. RNA1{[moe](G)[sp].[moe]([m5C])p.[moe](A)p.[moe](A)p.[moe](G)[sp].d([m5C])[sp].d(A)[sp].d(G)[sp].d(T)[sp].d(T)[sp].d([m5C])[sp].d(T)[sp].d(T)[sp].d(T)[sp].d(T)[sp].[moe]([m5C])p.[moe](T)p.[moe](T)[sp].[moe](T)}$$$$ (last 3' nucleoside missing)  6 score 0-7
3. RNA1{[moe](G)[sp].[moe](T)p.[moe]([m5C])p.[moe]([m5C])p.[moe](A)[sp].d(T)[sp].d(T)[sp].d(T)[sp].d(T)[sp].d([m5C])[sp].d(T)[sp].d(G)[sp].d(T)[sp].d(G)[sp].d([m5C])[sp].[moe](T)p.[moe](T)p.[moe](T)[sp].[moe](T)}$$$$ (last 3' nucleoside missing)  4.5 score 0-7
4. RNA1{[moe](G)[sp].[moe](T)p.[moe](T)p.[moe]([m5C])p.[moe](A)[sp].d([m5C])[sp].d(T)[sp].d(G)[sp].d(T)[sp].d(G)[sp].d(A)[sp].d(A)[sp].d(T)[sp].d(A)[sp].d(T)[sp].[moe](G)p.[moe](T)p.[moe]([m5C])[sp].[moe]([m5C])}$$$$ (last 3' nucleoside missing)  4.25 score 0-7
5. RNA1{[moe](G)[sp].[moe]([m5C])[sp].[moe]([m5C])[sp].[moe](A)[sp].[moe]([m5C])[sp].d(A)[sp].d(T)[sp].d(A)[sp].d(T)[sp].d(A)[sp].d(G)[sp].d(G)[sp].d(G)[sp].d(T)[sp].d([m5C])[sp].[moe]([m5C])[sp].[moe](T)[sp].[moe](T)[sp].[moe](T)}$$$$ (last 3' nucleoside missing)  4.25 score 0-7
6. RNA1{[moe](G)[sp].[moe]([m5C])p.[moe](A)p.[moe](G)p.[moe](A)[sp].d(A)[sp].d(A)[sp].d(G)[sp].d(T)[sp].d(A)[sp].d(G)[sp].d([m5C])[sp].d(T)[sp].d(A)[sp].d(T)[sp].[moe]([m5C])p.[moe](A)p.[moe](T)[sp].[moe](T)}$$$$ (last 3' nucleoside missing)  4.25 score 0-7
7. RNA1{[moe](G)[sp].[moe]([m5C])p.[moe](A)p.[moe](A)p.[moe]([m5C])[sp].d(G)[sp].d(G)[sp].d([m5C])[sp].d(T)[sp].d([m5C])[sp].d(A)[sp].d(T)[sp].d(G)[sp].d(A)[sp].d(T)[sp].[moe](G)p.[moe](A)p.[moe](A)[sp].[moe]([m5C])}$$$$ (last 3' nucleoside missing)  3.5 score 0-7
8. RNA1{[moe](G)[sp].[moe](T)p.[moe]([m5C])p.[moe](A)p.[moe](T)p.[moe](A)p.d(A)[sp].d(T)[sp].d(T)[sp].d(T)[sp].d(T)[sp].d([m5C])[sp].d(T)[sp].d(T)[sp].d(A)[sp].d(G)[sp].[moe]([m5C])p.[moe](T)[sp].[moe](A)}$$$$ (last 3' nucleoside missing)  2.5 score 0-7
9. RNA1{[moe](G)[sp].[moe]([m5C])p.[moe](A)p.[moe]([m5C])p.d(A)[sp].d([m5C])[sp].d(T)[sp].d(G)[sp].d(A)[sp].d([m5C])[sp].d([m5C])[sp].d(A)[sp].d(T)[sp].d(T)[sp].[moe](T)p.[moe](T)p.[moe](T)p.[moe](T)[sp].[moe](A)}$$$$ (last 3' nucleoside missing)  2.25 score 0-7
10. RNA1{[moe](G)[sp].[moe](T)p.[moe](T)p.[moe]([m5C])p.[moe](T)[sp].d(A)[sp].d(A)[sp].d(T)[sp].d(T)[sp].d(T)[sp].d(T)[sp].d(A)[sp].d(G)[sp].d(A)[sp].d(T)[sp].[moe]([m5C])p.[moe](A)p.[moe](T)[sp].[moe](T)}$$$$ (last 3' nucleoside missing)  2 score 0-7
11. RNA1{[moe](G)[sp].[moe](T)p.[moe]([m5C])p.[moe](A)p.[moe](A)[sp].d(A)[sp].d(A)[sp].d(T)[sp].d([m5C])[sp].d(A)[sp].d(T)[sp].d(T)[sp].d([m5C])[sp].d(T)[sp].d(G)[sp].[moe](G)p.[moe](T)p.[moe](T)[sp].[moe](T)}$$$$ (last 3' nucleoside missing)  1 score 0-7
12. RNA1{[moe](G)[sp].[moe](T)p.[moe]([m5C])p.[moe](A)p.[moe](G)[sp].d(T)[sp].d(T)[sp].d(T)[sp].d(T)[sp].d(T)[sp].d([m5C])[sp].d([m5C])[sp].d([m5C])[sp].d([m5C])[sp].d(A)[sp].[moe]([m5C])p.[moe](A)p.[moe](T)[sp].[moe](A)}$$$$ (last 3' nucleoside missing)  1 score 0-7
13. RNA1{[moe](G)[sp].[moe](T)p.[moe]([m5C])p.[moe]([m5C])p.[moe](A)[sp].d(A)[sp].d(A)[sp].d(A)[sp].d(A)[sp].d(T)[sp].d(A)[sp].d(A)[sp].d(G)[sp].d(T)[sp].d([m5C])[sp].[moe]([m5C])p.[moe](A)p.[moe](G)[sp].[moe](A)}$$$$ (last 3' nucleoside missing)  1 score 0-7
14. RNA1{[moe](G)[sp].[moe](T)p.[moe]([m5C])p.[moe](A)p.d(T)[sp].d(A)[sp].d(A)[sp].d(T)[sp].d(T)[sp].d(T)[sp].d(T)[sp].d([m5C])[sp].d(T)[sp].d(T)[sp].[moe](A)p.[moe](G)p.[moe]([m5C])p.[moe](T)[sp].[moe](A)}$$$$ (last 3' nucleoside missing)  0.25 score 0-7
15. RNA1{[moe](G)[sp].[moe](T)p.[moe]([m5C])p.[moe](A)p.[moe](G)[sp].d(T)[sp].d(T)[sp].d(T)[sp].d(T)[sp].d(T)[sp].d([m5C])[sp].d([m5C])[sp].d([m5C])[sp].[moe]([m5C])p.[moe](A)p.[moe]([m5C])[sp].[moe](A)}$$$$ (last 3' nucleoside missing)  0 score 0-7
16. RNA1{[moe](G)[sp].[moe](T)p.[moe]([m5C])p.[moe](A)p.[moe](G)p.[moe](T)p.d(T)[sp].d(T)[sp].d(T)[sp].d(T)[sp].d([m5C])[sp].d([m5C])[sp].d([m5C])[sp].d([m5C])[sp].d(A)[sp].d([m5C])[sp].[moe](A)p.[moe](T)[sp].[moe](A)}$$$$ (last 3' nucleoside missing)  0 score 0-7
17. RNA1{[moe](G)[sp].[moe](T)p.[moe]([m5C])p.[moe](A)p.[moe](G)p.d(T)[sp].d(T)[sp].d(T)[sp].d(T)[sp].d(T)[sp].d([m5C])[sp].d([m5C])[sp].d([m5C])[sp].d([m5C])[sp].[moe](A)[sp].[moe]([m5C])p.[moe](A)p.[moe](T)}$$$$ (last 3' nucleoside missing)  0 score 0-7
18. RNA1{[moe](G)[sp].[moe](T)p.[moe]([m5C])p.[moe](A)p.[moe](G)p.d(T)[sp].d(T)[sp].d(T)[sp].d(T)[sp].d(T)[sp].d([m5C])[sp].d([m5C])[sp].d([m5C])[sp].d([m5C])[sp].[moe](A)p.[moe]([m5C])p.[moe](A)[sp].[moe](T)}$$$$ (last 3' nucleoside missing)  0 score 0-7
19. RNA1{[moe](G)[sp].[moe](T)p.[moe]([m5C])p.[moe](A)p.[moe](T)[sp].d(A)[sp].d(A)[sp].d(T)[sp].d(T)[sp].d(T)[sp].d(T)[sp].d([m5C])[sp].d(T)[sp].d(T)[sp].d(A)[sp].[moe](G)p.[moe]([m5C])p.[moe](T)[sp].[moe](A)}$$$$ (last 3' nucleoside missing)  0 score 0-7
20. RNA1{[moe](G)[sp].[moe](T)p.[moe]([m5C])p.[moe](A)p.[moe](T)p.d(A)[sp].d(A)[sp].d(T)[sp].d(T)[sp].d(T)[sp].d(T)[sp].d([m5C])[sp].d(T)[sp].d(T)[sp].[moe](A)[sp].[moe](G)p.[moe]([m5C])p.[moe](T)}$$$$ (last 3' nucleoside missing)  0 score 0-7
21. RNA1{[moe](G)[sp].[moe](T)p.[moe]([m5C])p.[moe](A)p.d(G)[sp].d(T)[sp].d(T)[sp].d(T)[sp].d(T)[sp].d(T)[sp].d([m5C])[sp].d([m5C])[sp].d([m5C])[sp].d([m5C])[sp].[moe](A)p.[moe]([m5C])p.[moe](A)p.[moe](T)[sp].[moe](A)}$$$$ (last 3' nucleoside missing)  0 score 0-7
22. RNA1{[moe](G)[sp].[moe](T)p.[moe]([m5C])p.d(A)[sp].d(G)[sp].d(T)[sp].d(T)[sp].d(T)[sp].d(T)[sp].d(T)[sp].d([m5C])[sp].d([m5C])[sp].d([m5C])[sp].[moe]([m5C])p.[moe](A)p.[moe]([m5C])p.[moe](A)p.[moe](T)[sp].[moe](A)}$$$$ (last 3' nucleoside missing)  0 score 0-7
23. RNA1{[moe](G)[sp].[moe]([m5C])p.[moe](A)p.[moe]([m5C])p.[moe](A)[sp].d([m5C])[sp].d(T)[sp].d(G)[sp].d(A)[sp].d([m5C])[sp].d([m5C])[sp].d(A)[sp].d(T)[sp].d(T)[sp].d(T)[sp].[moe](T)p.[moe](T)p.[moe](T)[sp].[moe](A)}$$$$ (last 3' nucleoside missing)  0 score 0-7
24. RNA1{[moe](G)[sp].[moe]([m5C])p.[moe](A)p.[moe]([m5C])p.[moe](A)p.[moe]([m5C])p.d(T)[sp].d(G)[sp].d(A)[sp].d([m5C])[sp].d([m5C])[sp].d(A)[sp].d(T)[sp].d(T)[sp].d(T)[sp].d(T)[sp].[moe](T)p.[moe](T)[sp].[moe](A)}$$$$ (last 3' nucleoside missing)  0 score 0-7
25. RNA1{[moe](G)[sp].[moe]([m5C])p.[moe](A)p.[moe]([m5C])p.[moe](A)p.d([m5C])[sp].d(T)[sp].d(G)[sp].d(A)[sp].d([m5C])[sp].d([m5C])[sp].d(A)[sp].d(T)[sp].d(T)[sp].[moe](T)[sp].[moe](T)p.[moe](T)p.[moe](T)}$$$$ (last 3' nucleoside missing)  0 score 0-7
26. RNA1{[moe](G)[sp].[moe]([m5C])p.[moe](T)p.[moe](A)p.[moe](G)[sp].d(G)[sp].d(T)[sp].d(G)[sp].d(A)[sp].d([m5C])[sp].d(A)[sp].d(A)[sp].d(T)[sp].d(A)[sp].d(T)[sp].[moe]([m5C])p.[moe](A)p.[moe](A)[sp].[moe](A)}$$$$ (last 3' nucleoside missing)  0 score 0-7
